According to patent US20240124458A1, “POLYMORPHS OF AVAPRITINIB AND METHODS FOR PREPARING THE POLYMORPHS” (Macfarlan Smith Limted, priority 2020, published 2024):

Experiment: Gravimetric vapour sorption (GVS) isotherm, with XRPD after analysis
Assay type: physicochemical
Conditions: for water uptake (GVS isotherm plot): 25° C./90% RH; for XRPD after GVS analysis (change in form): after GVS cycles, 0-90% RH at 25° C.
Protocol: XRPD diffractograms were collected on a Bruker D8 diffractometer using Cu Kα radiation (40 kV, 40 mA) and a θ-2θ goniometer fitted with a Ge monochromator. The incident beam passes through a 2.0 mm divergence slit followed by a 0.2 mm anti-scatter slit and knife edge. The diffracted beam passes through an 8.0 mm receiving slit with 2.5° Soller slits followed by the Lynxeye Detector. The software used for data collection and analysis was Diffrac Plus XRD Commander and Diffrac Plus EVA respectively.
Hygroscopicity of a solid material may be determined by means of gravimetric vapour sorption (GVS) analysis, sometimes known by dynamic vapour sorption (DVS) analysis.
The experiment subjects a sample material which is held in a fine wire basket on a microbalance within a temperature and humidity controlled environment (chamber). Using the software, the collected data can then be processed to determine the isotherm points at the increment ranges specified during the experiment and show the overall water uptake of the material.
Sorption isotherms were obtained using a SMS DVS Intrinsic moisture sorption analyser, controlled by DVS Intrinsic Control software. The sample temperature was maintained at 25° C. by the instrument controls. The humidity was controlled by mixing streams of dry and wet nitrogen, with a total flow rate of 200 ml/min. The relative humidity was measured by a calibrated Rotronic probe (dynamic range of 1.0-100% RH), located near the sample. The weight change, (mass relaxation) of the sample as a function of %RH was constantly monitored by a microbalance (accuracy ±0.005 mg).
Typically, 5-30 mg of sample was placed in a tared mesh stainless steel basket under ambient conditions. The sample was loaded and unloaded at 40% RH and 25° C. (typical room conditions). A moisture sorption isotherm was performed as outlined below (2 scans per complete cycle). The standard isotherm was performed at 25° C. at 10% RH intervals over a 0-90% RH range. Typically, a double cycle (4 scans) was carried out. Data analysis was carried out within Microsoft Excel using the DVS Analysis Suite.

Row | Structure (SMILES) | water uptake (GVS isotherm plot) | XRPD after GVS analysis (change in form)
1 | Cn1cc(-c2cc3c(N4CCN(c5ncc([C@@](C)(N)c6ccc(F)cc6)cn5)CC4)ncnn3c2)cn1 [avapritinib anhydrate, (1S)-1-(4-fluorophenyl)-1-[2-[4-[6-(1-methylpyrazol-4-yl)pyrrolo[2,1-f][1,2,4]triazin-4-yl]piperazin-1-yl]pyrimidin-5-yl]ethanamine] | about 0.1 % w/w | unchanged
2 | Cn1cc(-c2cc3c(N4CCN(c5ncc([C@@](C)(N)c6ccc(F)cc6)cn5)CC4)ncnn3c2)cn1 [avapritinib hydrate, (1S)-1-(4-fluorophenyl)-1-[2-[4-[6-(1-methylpyrazol-4-yl)pyrrolo[2,1-f][1,2,4]triazin-4-yl]piperazin-1-yl]pyrimidin-5-yl]ethanamine] | about 4.0 % w/w | unchanged
